Measured values: a compilation of properties of binary mixtures (doi:10.1016/j.molliq.2022.120410)

Assay: xn = mol fraction of the nth substance listed
Conditions: 101.3 kPa

OCCOCCO + CC[NH3+].O=[N+]([O-])[O-]
x2 = 0
Conditions | speed of sound [m/s]
298.1 K | 1580.6
308.1 K | 1556.6

CC[NH3+].O=[N+]([O-])[O-] + OCCOCCO
speed of sound [m/s]
Conditions | 298.1 K | 308.1 K | 318.1 K
x1 = 0.0488 | 1599.6 | 1576.8 | 1553.8
x1 = 0.0983 | 1614.6 | 1592 | 1569.5
x1 = 0.197 | 1632 | 1609.6 | 1587.5
x1 = 0.2961 | 1639.9 | 1619.1 | 1598.3
x1 = 0.3955 | 1644.5 | 1625.4 | 1605.9
x1 = 0.4954 | 1643.9 | 1625.6 | 1607.3
x1 = 0.5955 | 1643.2 | 1626.3 | 1609.1
x1 = 0.6961 | 1641.7 | 1625.6 | 1609.1
x1 = 0.797 | 1640 | – | 1607.8
x1 = 0.8983 | 1638.6 | 1622.8 | 1607.3
x1 = 1 | – | 1624.7 | 1609.3
